Columns and labels:
[1] = tested on: Ar-5 T cells (NF-AT induction, IL-2 gene expression); test: Induction of NF-AT and IL-2 gene expression in activated Ar-5 T cells; format: cell-based, murine; details: Ar-5 cells activated through T cell antigen receptor/CD3
Experimental: For preparation of nuclear extracts from activated T cells, cells were incubated for two hours with cross-linked anti-CD3ε monoclonal antibody (145-2C11, Kubo, R. T., Born, W., Kappler, J. W., Marrack, P., and Pigeon, M. (1989) J. Immunol. 142, 2736-2742) in the presence or absence of 1 μM CsA. Activation conditions and preparation of nuclear extracts was exactly as previously described (McCaffrey, P. G., Jain, J., Jamieson, C., Sen, R., and Rao, A. (1992) J. Biol. Chem. 267, 1864-1871). Protein determinations were done by the method of Bradford (Bradford, M. (1976) Anal. Biochem. 72,248-254), using bovine serum albumin as a standard.
To characterize the preexisting, DNA-binding component of NF-AT, we have used the murine IL-2 dependent T cell clone Ar-5. Activation of Ar-5 cells with monoclonal antibodies to the T cell antigen receptor or its associated CD3 complex causes the rapid appearance in the nucleus of several inducible transcription factor including NF-AT, which is followed by expression of the IL-2 gene and cell proliferation (Jamieson, C., McCaffrey, P. G., Rao, A., and Sen, R. (1991) J. Immunol. 147,416-420). […] We have previously established that unactivated Ar-5 cells contain a protein or proteins, extracted under hypotonic lysis conditions, that can bind in the EMSA to an oligonucleotide comprising the distal NF-AT sequence from the murine IL-2 promoter. […]

[2] = tested on: NF-ATp dephosphorylation in Ar-5 T cell extracts; test: Dephosphorylation of NF-ATp (apparent molecular weight by SDS-PAGE, renaturation, EMSA) in extracts of drug-treated Ar-5 T cells; format: cell-based, murine; details: prior treatment of T cells for 10 minutes with 1 μM CsA or 100 nM FK506 before lysis
Experimental: To prepare hypotonic extracts, cells were harvested by centrifugation, washed with phosphate buffered saline and resuspended to 10^8 cells/ml in buffer containing 7.5 mM Tris (pH 7.6), 2 mM PMSF, 1 mM MgCl2, 0.5 mM DTT, 0.25 mM leupeptin, 0.1 mM EDTA and 1 mg/ml aprotinin. The cells were lysed by quick-freezing in dry ice and rapid thawing in a room-temperaturewater bath, followed by centrifugation at 12,000 x g for 10 minutes. Where indicated, cells were treated before harvesting with 1 μM CsA (Sandoz Corp.) or 100 nM FK506 (Fujisawa Pharmaceutical) for 10 minutes at 37° C.
Hypotonic or nuclear extracts were boiled in SDS-PAGE sample buffer (65 mM Tris, pH 6.8, 2% SDS, 2% 2-mercaptoethanol, 10% glycerol, 0.01 mg/ml bromphenol blue) and fractionated on 3 mm thick SDS-polyacrylamide gels by standard methods (Laemmli, U. K. (1970) Nature 227, 680-685). Molecular weight standards (BioRad Laboratories) were also run on the same gel. After electrophoresis, the standards were cut off and separately stained. For recovery of proteins from the gels, slices (1 cm×0.5 cm) from wet, unfixed gels were crushed and eluted overnight in 50 mM Tris, pH 7.9, 1 mM DTT, 0.2 mM EDTA, 0.1 mM PMSF, 0.1 mg/ml BSA, 2.5% glycerol and 0.1% SDS (Baeuerle, P., and Baltimore, D. (1988) Cell 53, 211-217). […]

## C=CC[C@@H]1/C=C(\C)C[C@H](C)C[C@H](OC)[C@H]2O[C@@](O)(C(=O)C(=O)N3CCCC[C@H]3C(=O)O[C@H](/C(C)=C/[C@@H]3CC[C@@H](O)[C@H](OC)C3)[C@H](C)[C@@H](O)CC1=O)[C@H](C)C[C@@H]2OC [FK506]
[1]
  Induction of NF-AT and subsequent IL-2 gene expression: completely blocked
[2]
  Dephosphorylation of NF-ATp in cell extracts: inhibited
